Converted amounts (≈) assume the structure as drawn.

A short description of series [1]: Cytotoxicity against HEK293T cells assessed as inhibition of cell viability at 25 uM after 48 hrs by MTT assay relative to control. The class given is cell-based, HEK-293T. The conditions noted are these: human, read-out: INH. (Tetrazolium dyes change colour on reduction, which living cells bring about.)
Series [2] in a line: Antioxidant activity assessed as DPPH free radical scavenging activity incubated for 30 mins in dark condition by spectrophotometric method. The class given is physicochemical.
A short description of series [3]: Cytotoxicity against human PC3 cells assessed as inhibition of cell viability at 25 uM after 48 hrs by MTT assay relative to control. The class given is functional. The conditions noted are these: PC-3, 48 h.
In the next series the test system is A549. The experiment in a line: Cytotoxicity against human A549 cells assessed as inhibition of cell viability at 25 uM after 48 hrs by MTT assay relative to control. The class given is functional. As to conditions: A549, 48 h.
Series [4] is described as follows: Cytotoxicity against human PC3 cells assessed as inhibition of cell viability after 48 hrs by MTT assay. The class given is functional, cell-based. As to conditions: PC-3, 48 h.
Series [5] is described as follows: Cytotoxicity against HEK293T cells assessed as inhibition of cell viability after 48 hrs by MTT assay. The class given is cell-based. As to conditions: Homo sapiens, HEK-293T.

The IC50 is the concentration at which inhibition is half-maximal. One may read the inhibition as how much of the control response was suppressed. For `COc1c(-c2ccccc2)c(C)nn1-c1ccccc1`, in series [1], the cytotoxicity at 48 h, 25 µM is 28.2%. Further, the IC50 in series [2] is 32.2 µg/mL (≈ 122 µM). In addition, the values for the inhibition at 25 µM (in series [3]; in the series on A549) were 16.2% and 65.7%, respectively.
Consider `COc1ccc(CNC(=O)c2c(C)nn(-c3ccccc3)c2OC)cc1`, for which, in series [1], the cytotoxicity at 48 h, 25 µM was 44.3%. Moreover, the IC50 in series [2] was 28.42 µg/mL (≈ 80.9 µM). Besides, the results for the inhibition at 25 µM (in series [3]; in the series on A549) were 34.6% and 60.9%, respectively.
On to `COc1c(Br)c(C)nn1-c1ccccc1`, for which, in series [1], the cytotoxicity at 48 h, 25 µM is 5.96%. Besides, in series [2], the IC50 stood at 36.96 µg/mL (≈ 138 µM). Besides, the inhibition at 25 µM in series [3] was found to be 6.38%; in the series with A549, 30.8%.
Take `COc1c(C(=O)O)c(C)nn1-c1ccccc1`: the cytotoxicity at 48 h, 25 µM in series [1] was found to be 12.1%. Also, the IC50 in series [2] was found to be 16.27 µg/mL (≈ 70.1 µM). In addition, the inhibition at 25 µM in series [3] is 3.19%; in the series with A549, 22.1%.
In the case of `COc1ccc(-c2c(C)nn(-c3ccccc3)c2OC)cc1`, the cytotoxicity at 48 h, 25 µM in series [1] came to 46.3%. In series [2], the IC50 worked out at 24.98 µg/mL (≈ 84.9 µM). The inhibition at 25 µM in series [3] was 24.3%; in the series with A549, 70.7%.
With `COc1c(-c2ccc(C)cc2)c(C)nn1-c1ccccc1`, the cytotoxicity at 48 h, 25 µM in series [1] was found to be 19.7%. Moreover, the IC50 in series [2] was determined as 18.6 µg/mL (≈ 66.8 µM). Besides, the inhibition at 25 µM was 18.5% in series [3] and 44% in the series with A549.
The matching figures for `COc1c(-c2ccc3ccccc3c2)c(C)nn1-c1ccccc1`: 53.6%, 53.56 µg/mL (≈ 170 µM), 27.6% and 71%.
In the case of `COc1c(-c2cccc(C)c2)c(C)nn1-c1ccccc1`, in series [1], the cytotoxicity at 48 h, 25 µM is 70.5%. Further, the IC50 in series [2] was found to be 26.4 µg/mL (≈ 94.8 µM). Moreover, the inhibition at 25 µM is 59.3% in series [3] and 85.9% in the series on A549.
Consider `COc1cc(C)nn1-c1ccccc1`, for which the cytotoxicity at 48 h, 25 µM in series [1] was found to be 23%. Moreover, the IC50 in series [2] came out at 49.18 µg/mL (≈ 261 µM). Besides, the values for the inhibition at 25 µM (in series [3]; with A549) were 5.91% and 55.8%, respectively.
In the same order, the values of `COc1c(-c2ccc(O)cc2)c(C)nn1-c1ccccc1` are 5.58%, 37.03 µg/mL (≈ 132 µM), 4.9% and 55.9%.
Turning to `COc1c(-c2ccc(F)cc2)c(C)nn1-c1ccccc1`, the cytotoxicity at 48 h, 25 µM in series [1] was 40.9%. In addition, in series [2], the IC50 was found to be 35.97 µg/mL (≈ 127 µM). Moreover, the inhibition at 25 µM in series [3] was 46.3%; with A549 it was 63.9%.
As for `COc1c(-c2csc3ccccc23)c(C)nn1-c1ccccc1`, in series [1], the cytotoxicity at 48 h, 25 µM came to 55%. For the same compound, the IC50 in series [2] is 50.67 µg/mL (≈ 158 µM). For the same compound, the results for the inhibition at 25 µM (in series [3]; with A549) were 32.4% and 73.5%, respectively.
Regarding `COc1c(C(=O)NCc2ccccc2)c(C)nn1-c1ccccc1`, the cytotoxicity at 48 h, 25 µM in series [1] was 22.2%. The IC50 in series [2] stood at 23.63 µg/mL (≈ 73.5 µM). The inhibition at 25 µM was 8.71% in series [3] and 46.7% with A549.
As for `COCc1ccccc1-c1c(C)nn(-c2ccccc2)c1OC`, in series [1], the cytotoxicity at 48 h, 25 µM was found to be 56.5%. In addition, the IC50 in series [2] stood at 20.05 µg/mL (≈ 65 µM). The values for the inhibition at 25 µM (in series [3]; with A549) were 36% and 80.5%, respectively.
In the same order, the values of `COc1c(C(=O)NCc2ccc(Cl)cc2)c(C)nn1-c1ccccc1` are 49.4%, 16.07 µg/mL (≈ 45.2 µM), 45.8% and 87%.
In the same order, the values of `COc1c(-c2ccc(C#N)cc2)c(C)nn1-c1ccccc1` are 57.8%, 41.98 µg/mL (≈ 145 µM), 30.2% and 54.7%.
With `COc1c(C(=O)NC(C)c2ccccc2)c(C)nn1-c1ccccc1` (stereo not drawn), the cytotoxicity at 48 h, 25 µM in series [1] was 31.8%. Besides, in series [2], the IC50 is 26.98 µg/mL (≈ 80.4 µM). Further, the figures for the inhibition at 25 µM (in series [3]; in the series with A549) were 29.7% and 52.7%, respectively.
As for `COc1ccc(-c2c(C)nn(-c3ccccc3)c2OC)c(OC)c1`, the cytotoxicity at 48 h, 25 µM in series [1] was determined as 48.1%. The IC50 in series [2] came out at 38.99 µg/mL (≈ 120 µM). Also, the inhibition at 25 µM amounted to 33% in series [3] and 74.7% in the series with A549.
In the case of `COc1c(-c2ccsc2)c(C)nn1-c1ccccc1`, the cytotoxicity at 48 h, 25 µM in series [1] was determined as 22.2%. Moreover, the IC50 in series [2] was determined as 30.08 µg/mL (≈ 111 µM). Besides, the inhibition at 25 µM in series [3] amounted to 36.6%; with A549, 40%.
On to `O=C1O[C@H]([C@@H](O)CO)C(O)=C1O` [ASCORBIC ACID], for which the IC50 in series [2] is 8.09 µg/mL (≈ 45.9 µM).
Regarding `COc1cccc2c1C(=O)c1c(O)c3c(c(O)c1C2=O)C[C@@](O)(C(=O)CO)C[C@@H]3O[C@H]1C[C@H](N)[C@H](O)[C@H](C)O1` [DOXORUBICIN], the IC50 in series [4] came out at 2100 nM; in series [5], 1200 nM.
For the compound `CC1=NN(c2ccccc2)C(=O)C1` [EDARAVONE], the cytotoxicity at 48 h, 25 µM in series [1] worked out at 2.4%. Moreover, in series [2], the IC50 was found to be 54.4 µg/mL (≈ 312 µM). Moreover, the inhibition at 25 µM in series [3] was 1.43%; in the series with A549, 19.2%.

The values above are taken from ChEMBL document CHEMBL3792344, “Synthesis, molecular properties prediction and anticancer, antioxidant evaluation of new edaravone derivatives” (Bioorg Med Chem Lett, 2016).
